Several values for one entry are separate records, joined by “and”; a condition that tells them apart may be missing. Equal entries are not always repeated. Where two headings read alike, the source gives them in different places.
Tests used:
[1] = parameters: method as in PMID 27089552; settings: cited from earlier work; for Mean dose rate at 1 m: 23 patients, 7.5 GBq
[2] = Estimation of dose to the public after discharge of the patient (Eq. 4); format: in vivo, patients
Source text: The determination of the expected dose D to the public requires knowledge of the dose rate DR at the time point of the release of the patient and of the effective half-life T1/2eff. The dose D can then be calculated according to the following equation:4 D=DR∙T1/2eff/ln2.
This equation was originally recommended by the German Commission on Radiological Protection to conservatively estimate the dose to the public after iodine-131 therapy.
The data were fitted by a mono-exponential curve, and the effective half-life was calculated for the different time points: 24, 48, and 72 h (only from the data of Department 2). […] For all comparisons, the time point 48 h was chosen as the reference, because it is standard that the patients are released from the therapy ward after 48 h. Subsequently, Eq. 4 was used to determine the dose D to the public after the discharge of the patient for different time points of release (24, 48, and 72 h p. i.), substituting T1/2eff by T1/2ind (individual half-life of each patient), T1/2phys (physical half-life of ^177Lu), and T1/2max (maximum of the calculated effective half-life of the patient cohort) for different calculations. In addition, a correlation analysis (Spearman and Pearson) of the dose rate and administered activity was performed.

[3] = parameters: method as in PMID 27089552; settings: group of 7 patients; cited from earlier work
[4] = Whole-body activity measurement with external gamma probe and analysis of excreted activity; format: in vivo, patients; settings: 25 patients (Department 2)
Experimental: The analysis of the excretion of unbound ^177Lu-PSMA ligands and lutetium-177 was performed indirectly by measuring the remaining activity within the body of the patients at different time points with an external gamma probe. This has been proven to be a fast, simple, and robust method to estimate the activity within the body of the patient. The difference compared with the expected activity that can be calculated directly by the physical decay of the administered activity is assumed to be equivalent to the excreted activity.
The measurements were carried out in Department 2, using a cohort of 25 patients (see Table 1). The whole-body activity was measured at 0 h (before voiding, reference) and approximately at 2, 4, 12, 24, 48, and 72 h after the administration of ^177Lu-PSMA-617.
The remaining activity AWB in the patient at the given time point ti was determined by the following equation:1 AWBti=CAti⋅CPti/CFP, where cA(ti) and cP(ti) are the count rates (compensated for the background) at the given time point for the anterior and posterior views respectively. CFP is a patient-specific calibration factor based on a baseline measurement of each patient, performed immediately after administration of ^177Lu-PSMA-617 and before the first voiding of the bladder. This factor is calculated according to the following equation:2 CFP=CA0⋅Cp0/AP, where AP is the administered activity. This factor represents the efficiency of the detector for the spatially distributed activity and intrinsically considers the self-attenuation of the γ photons by the body of the patient.
The excreted activity Aex at the time point ti was calculated as the difference of the whole-body activity at the previous time point ti − 1 (corrected for decay) and the whole-body activity at the time point ti. The whole extracted activity can then be calculated as a summation:3 Aex=∑j=1iAWBti−1e^−ln2/T1/2∙ti−ti−1−AWBti,
A 3″ × 3″-NaI (Tl) detector (Type 905-4) with multichannel analyzer and software (digiBASE, MAESTRO, Ortec, Oak Ridge, USA) was used as a measurement system. It was calibrated using americium-241, cobalt-57, cesium-137, and iodine-131 test sources, and regular quality checks were carried out. The shielded detector (collimator of 3 cm lead) was positioned 1 m above the floor, and the field of view covered the whole body of the patient. The energy window was set to 208 keV ± 27%, corresponding to approximately 3 × full width at half maximum of the energy resolution of the NaI (Tl) detector. The background was measured for 300 s without the presence of a patient. Patients were measured in anterior and posterior standing positions while holding arms close to the body at a distance of 2 m from the collimator surface. For all measurements, the acquisition time corrected for dead-time effects was set to 90 s. […] No further corrections (e.g., for pile-up or non-linearity) were applied. Statistical uncertainties of the count rate were below 1% for all measurements, as recommended by Hindorf et al.. Bi-exponential functions were fitted to the data, and the effective half-lives were calculated. The bi-exponential fit model was chosen after comparing the quality of fit of mono- and bi-exponential models using the Akaike criterion as described by Kletting et al..

[5] = discharge 24 h p. i., T1/2ind (value from the 48-h measurement point)
[6] = discharge 72 h p. i., T1/2ind, 25 patients (Department 2)
[7] = discharge 72 h p. i., T1/2max, 25 patients (Department 2)
[8] = discharge 72 h p. i., T1/2phys, 25 patients (Department 2)

Compound: O=C([O-])CN1CCN(CC(=O)[O-])CCN(CC(=O)NCC2CCC(C(=O)N[C@@H](Cc3ccc4ccccc4c3)C(=O)NCCCC[C@H](NC(=O)N[C@@H](CCC(=O)O)C(=O)O)C(=O)O)CC2)CCN(CC(=O)[O-])CC1.[177Lu+3] (some centres unmarked) [^177Lu-PSMA-617]
- Mean dose rate at 1 m ([1]; after 4 h): 23 ± 6 μSv/h
- Mean dose rate at 1 m ([1]; after 6 h): 15 ± 4 μSv/h
- Mean dose received by close family members ([1]; measured for 5 days post-injection with optically stimulated luminescence dosimeter, patients released 6 h p. i.): 202 ± 43 μSv
- Estimated dose to the public after 1 cycle, mean [2, 5]: 100 μSv and 99 μSv
- Estimated dose to the public after 1 cycle, min [2, 5]: 25 μSv
- Estimated dose to the public after 1 cycle, max ([2]; discharge 24 h p. i., T1/2max): 410 μSv
- Estimated dose to the public after 1 cycle, mean ([2]; discharge 24 h p. i., T1/2max): 208 μSv
- Estimated dose to the public after 1 cycle, min ([2]; discharge 24 h p. i., T1/2max): 75 μSv
- Estimated dose to the public after 1 cycle, max ([2]; discharge 24 h p. i., T1/2phys): 779 μSv
- Estimated dose to the public after 1 cycle, mean ([2]; discharge 24 h p. i., T1/2phys): 396 μSv
- Estimated dose to the public after 1 cycle, min ([2]; discharge 24 h p. i., T1/2phys): 142 μSv
- Estimated dose to the public after 1 cycle, min ([2]; discharge 48 h p. i., T1/2ind): 13 μSv
- Estimated dose to the public after 1 cycle, max ([2]; discharge 48 h p. i., T1/2max): 294 μSv
- Estimated dose to the public after 1 cycle, mean ([2]; discharge 48 h p. i., T1/2max): 139 μSv
- Estimated dose to the public after 1 cycle, min ([2]; discharge 48 h p. i., T1/2max): 49 μSv
- Estimated dose to the public after 1 cycle, max ([2]; discharge 48 h p. i., T1/2phys): 560 μSv
- Estimated dose to the public after 1 cycle, mean ([2]; discharge 48 h p. i., T1/2phys): 263 μSv
- Estimated dose to the public after 1 cycle, min ([2]; discharge 48 h p. i., T1/2phys): 93 μSv
- Estimated dose to the public after 1 cycle, max [2, 6]: 204 μSv
- Estimated dose to the public after 1 cycle, mean [2, 6]: 50 μSv
- Estimated dose to the public after 1 cycle, min [2, 6]: 17 μSv
- Estimated dose to the public after 1 cycle, max [2, 7]: 233 μSv
- Estimated dose to the public after 1 cycle, mean [2, 7]: 105 μSv
- Estimated dose to the public after 1 cycle, min [2, 7]: 49 μSv
- Estimated dose to the public after 1 cycle, max [2, 8]: 443 μSv
- Estimated dose to the public after 1 cycle, mean [2, 8]: 200 μSv
- Estimated dose to the public after 1 cycle, min [2, 8]: 93 μSv
- Expected dose to the public per cycle of therapy ([2]; human, in vivo): below 1 mSv
- Maximum dose to individual members of the public per treatment cycle ([2]; patient discharged after 72 h): ~ 190 ± 36 μSv
- Estimated dose to the public per cycle ([2]; physical half-life of lutetium-177 used for the calculation (conservative approach)): below 1 mSv
- Administered activity excreted within the first 6 h, mean [3]: 45%
- Excreted activity Aex between given time point and previous time point, max ([4]; 2 h p. i.): 2621 MBq
- Excreted activity Aex between given time point and previous time point, mean ([4]; 2 h p. i.): 1718 MBq
- Excreted activity Aex between given time point and previous time point, min ([4]; 2 h p. i.): 735 MBq
- Overall excreted activity as percentage of administered activity, max ([4]; 2 h p. i.): 42%
- Overall excreted activity as percentage of administered activity, mean ([4]; 2 h p. i.): 30%
- Overall excreted activity as percentage of administered activity, min ([4]; 2 h p. i.): 13%
- Excreted activity Aex between given time point and previous time point, max ([4]; 4 h p. i.): 1526 MBq
- Excreted activity Aex between given time point and previous time point, mean ([4]; 4 h p. i.): 1265 MBq
- Excreted activity Aex between given time point and previous time point, min ([4]; 4 h p. i.): 1060 MBq
- Overall excreted activity as percentage of administered activity, max ([4]; 4 h p. i.): 62%
- Overall excreted activity as percentage of administered activity, min ([4]; 4 h p. i.): 30%
- Excreted activity Aex between given time point and previous time point, max ([4]; 12 h p. i.): 1323 MBq
- Excreted activity Aex between given time point and previous time point, mean ([4]; 12 h p. i.): 1155 MBq

Source: publication PMC5897276, “External radiation exposure, excretion, and effective half-life in ^177Lu-PSMA-targeted therapies” (EJNMMI Research, 2018)
